The text below walks through data of article PMC8761912, “Cryptosporidium parvum Pyruvate Kinase Inhibitors With in vivo Anti-cryptosporidial Efficacy” (Frontiers in Microbiology, 2022).

Like-named read-outs stand apart in the source and are kept apart here. Marks after values point to notes of the source that are not given here.

The target in data set [1] is recombinant CpPyK (rCpPyK) protein (Cryptosporidium parvum, UniProt Q5CSM7). The experiment in a line: rCpPyK enzymatic activity inhibition assay (ATP detection, Cell Titer-Glo luminescence). The class given is biochemical. The method, then:
(§1) The in vitro enzymatic activity of the rCpPyK protein was determined by quantitating the amount of ATP produced by the transfer of a phosphate group from phosphoenolpyruvate to adenosine diphosphate (ADP) in the presence of varying concentrations of the recombinant protein (Figure 1A). A typical assay contained 0.5 mM phosphoenolpyruvate, 0.6 mM ADP, 50 mM Tris buffer pH 7.5, 60 mM MgSO4, 100 mM KCl, and varying concentrations of rCpPyK incubated for 3 h at room temperature. The ATP generated was detected in a reaction volume of 50 μl in white opaque-walled 96 well plates by the luciferase-based Cell Titer-Glo 2.0 reagent (Promega) following the manufacturer’s instructions. The enzyme kinetics of rCpPyK were determined by using varying phosphoenolpyruvate (0–8 mM) and ADP (0–2 mM) concentrations in an enzymatic reaction catalyzed by a fixed concentration of the recombinant protein (6 ng/μl). In all assays, reaction mixtures without rCpPyK were included as negative controls. Three independent assays were performed for each experiment, and samples were run in triplicate. The luminescence generated was recorded using a multi-mode microplate reader (Spectra Max iD3; Molecular Devices, United States). GraphPad PRISM® v8 software was used to fit the Michaelis–Menten model directly to the substrate-velocity data to determine the enzymatic kinetic parameters for rCpPyK.
The Diversity Set VI chemical library (Supplementary Table 1) was obtained from the National Cancer Institute (NCI)/Developmental Therapeutics Program (DTP) Open Repository collection of chemical compounds.^1 Compounds were individually reconstituted in molecular biology grade dimethyl sulfoxide (DMSO) from Sigma-Aldrich and stored at −20°C. From the library, 1,424 compounds were screened in 96-well plates using the rCpPyK catalyzed enzyme assay to identify potential CpPyK inhibitors. The reactions were performed in 50 μl reaction volume containing 0.5 mM phosphoenolpyruvate, 0.6 mM ADP, 50 mM Tris buffer pH 7.5, 60 mM MgSO4, 100 mM KCl, and 6 ng/μl of rCpPyK protein with or without compound. The concentration of DMSO in all reaction mixtures was 1% (v/v). Control reactions without rCpPyK protein were included for background subtraction. Following 3 h of incubation at room temperature, an equal volume of the Cell Titer-Glo 2.0 reagent was added to each well, and the luminescence produced was recorded as relative luminescence units (RLU) after 10 min of incubation using a multi-mode microplate reader (Spectra Max iD3; Molecular Devices, United States). The mean percent inhibition (MPI) of rCpPyK activity by each compound was derived by dividing the difference in luminescence (RLU) between the compound-treated wells and the DMSO-treated wells by the luminescence of the DMSO-treated wells and multiplying the product by 100:
(1) MPI=[(MeanRLUDMSO-treated-MeanRLUCompound-treated)÷MeanRLUDMSO-treated]×100.
Half maximal inhibitory concentration (IC50) values were determined by applying a non-linear regression analysis curve fit to the mean dose-response data for varying concentrations of each compound using GraphPad PRISM® v8. Reactions were performed in triplicate and repeated at least thrice.

For data set [2] the following is noted: ref https://pubchem.ncbi.nlm.nih.gov, cited from earlier work; for Polar surface area: topological.
Data set [3] is described as follows: Physicochemical properties adapted from PubChem. The note with it: based on Supplementary Table 2 properties. The source says:
Supplementary Table S2. Physicochemical properties of identified CpPyK inhibitors (Adapted from: https://pubchem.ncbi.nlm.nih.gov).
NSC Molecular Molecular Number of Number of Number of Polar number IUPAC name formula weight cLog(p) Hydrogen bond Hydrogen bond rotatable surface donors acceptors bonds area (Å²) […]

The nature of data set [4]: In vitro compound cytotoxicity assay (WST-1). It counts as cell-based. The following applies: human, uninfected HCT-8 cells. Here is the method: Compounds were tested for cytotoxicity in human ileocecal colorectal adenocarcinoma cells [HCT-8 (HRT-18); ATCC® CCL-244™, CVCL_2478] by using the cell proliferation reagent WST-1 (Roche) according to the manufacturer’s protocol. The WST-1 assay is a quantitative colorimetric assay for measurement of metabolically active cells. This assay is based on the reduction of the tetrazolium salt (WST-1) by viable cells. About 5 × 10^4 HCT-8 cells were seeded per well in 96-well plates and grown overnight in 200 μl of RPMI-1640 medium (without phenol red) (Gibco) supplemented with 2.5 g/L of glucose, 1 mM sodium pyruvate, 1.5 g/L of sodium bicarbonate, 10% heat-inactivated FBS (Gibco), and 1 × Antibiotic-Antimycotic (Gibco) at 37°C with 5% CO2 in a humidified incubator. Upon reaching 80–90% confluency, cells were treated with the chemical compounds reconstituted in DMSO for 24 h. The volume of DMSO was kept below 1% of the total culture volume in all the wells to avoid DMSO cytotoxicity. Control wells received equivalent volumes of DMSO used in the reconstituted compounds. After 24 h of culture, 10 μl of the WST-1 reagent was added to each well, and the plates were incubated for 1 h at 37°C with 5% CO2 under dark conditions. The plates were shaken thoroughly and 150 μl of the medium from each well was transferred to a new clear flat-bottom black 96-well plate (Corning). Absorbance was read at a test wavelength of 440 nm and a reference wavelength of 690 nm using a multi-mode microplate reader (Spectra Max iD3; Molecular Devices, United States). The mean percent toxicity (MPT) of each compound was derived by dividing the difference in absorbance (OD) between the compound-treated cells and the DMSO-treated cells by the absorbance from the DMSO-treated cells and multiplying the product by 100:
(2) MPT=[(MeanODDMSO-treated-MeanODCompound-treated)÷MeanODDMSO-treated]×100.
The half maximal cytotoxic concentration (CC50) values were determined by using non-linear regression analysis in GraphPad PRISM® v8. Assays were performed in triplicate and repeated three times.
(Tetrazolium assays rely on reduction of a dye to a coloured formazan, in cell work by metabolically active cells.)

The subject of the next data set is C. parvum. The experiment in a line: In vitro anti-Cryptosporidium activity in infected HCT-8 cells (immunofluorescence assay). It counts as cell-based, Cryptosporidium parvum. The following applies: for effect on in vitro proliferation and viability of C. parvum: 25 μM, added immediately after infection, 48 h of culture, vs untreated parasites; for EC50: Cryptosporidium parvum; for effect on proliferation of intracellular C. parvum in HCT-8 cells: varying concentrations, 0 h or 2 h PI, analysed 48 h PI, vs infected cultures without compound. Here is the method: Once confluent, the cells were infected with 10^5 freshly excysted C. parvum sporozoites per well, immediately followed by the addition of anti-CpPyK compounds (reconstituted in DMSO) to one set of wells. Control infected cells were treated with DMSO volumes equivalent to those used for the compound-treated cultures. Paromomycin reconstituted in distilled sterile water, served as a positive control at a concentration of 200 μM. […] Briefly, the medium was removed from the culture wells, and the cells were washed two times with PBS before fixation with pre-chilled methanol-acetic acid (9:1) for 5 min at room temperature. Residual fixative was removed by rinsing the wells with PBS. Cells were rehydrated and permeabilized by washing twice with a buffer containing 0.1% Triton X-100, 0.35 M NaCl, and 0.13 M Tris-base, pH 7.6. Normal goat serum (5% in PBS) was used as a blocking agent, and the cell monolayer was stained with a fluorescein-labeled anti-C. parvum polyclonal antibody (Sporo-Glo™; Waterborne, Inc.) overnight at 4°C. The stained cells were washed twice with PBS followed by the addition of 200 μl water to each well. Plates were then imaged with an inverted fluorescence microscope using a 20× objective. The fluorescence generated by intracellular C. parvum parasites was quantified from nine microscopic fields per well of a 96-well plate using the batch process function in ImageJ version v1.50 (NIH, United States) after setting a threshold for the detection of parasites. Control wells with uninfected monolayers were included for background subtraction. Experiments were performed in triplicate and repeated at least three times.
One set of wells with confluent HCT-8 cells received CpPyK inhibitors immediately after C. parvum infection, while the same compounds were added to the other set of wells 2 h post-infection (PI). Control infected cells were treated with varying volumes of DMSO equivalent to the ones used for the compound-treated cultures. Cell monolayers were processed for immunofluorescence analysis after 48 h of incubation as described above. Samples were run in triplicate and three independent assays were performed. EC50 values were calculated using non-linear regression analysis of the mean dose-response curve data in GraphPad PRISM® v8.

The nature of a further data set: Solubility. It counts as physicochemical. The following applies: solvent not stated.
The next data set has as its target T1, rCpPyK (Cryptosporidium parvum, UniProt Q5CSM7).
T1 sequence (Q5CSM7 7-532): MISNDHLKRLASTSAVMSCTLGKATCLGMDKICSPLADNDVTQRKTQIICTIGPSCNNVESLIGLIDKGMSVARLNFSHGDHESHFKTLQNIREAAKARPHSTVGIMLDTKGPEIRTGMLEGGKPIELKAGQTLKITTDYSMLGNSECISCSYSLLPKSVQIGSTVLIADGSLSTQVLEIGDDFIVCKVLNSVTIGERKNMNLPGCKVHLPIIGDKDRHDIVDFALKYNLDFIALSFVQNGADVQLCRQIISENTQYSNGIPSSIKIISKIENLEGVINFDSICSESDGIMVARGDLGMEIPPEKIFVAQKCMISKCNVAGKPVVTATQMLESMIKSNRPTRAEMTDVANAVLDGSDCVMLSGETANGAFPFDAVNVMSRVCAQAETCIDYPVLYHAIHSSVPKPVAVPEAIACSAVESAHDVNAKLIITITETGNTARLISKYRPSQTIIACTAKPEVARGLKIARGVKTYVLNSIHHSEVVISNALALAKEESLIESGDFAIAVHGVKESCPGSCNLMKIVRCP
The note with it: previously reported for CpPyK; ref Denton et al. (1996); cited from earlier work.

Substrate in data set [5]: Nc1ncnc2c1ncn2[C@@H]1O[C@H](COP(=O)(O)OP(=O)(O)O)[C@@H](O)[C@H]1O
The experiment in a line: rCpPyK enzyme kinetics on substrates (Michaelis–Menten). It counts as biochemical, Cryptosporidium parvum. The note with it: other: 6 ng/μl rCpPyK, varying substrate; pH 7.5. Here is the method: as §1

Substrate in data set [6]: C=C(OP(=O)(O)O)C(=O)O
The data set is described as above. The note with it: other: 6 ng/μl rCpPyK, varying substrate; pH 7.5. It counts as biochemical, Cryptosporidium parvum. Here is the method:
as §1

The mark [7] stands for this setting: HCT-8, read-out: Anti-C. parvum EC50, 0 h PI.
Setting [8] is: HCT-8, read-out: Anti-C. parvum EC50, 2 h PI.

For orientation: IC50 means the point on the concentration scale where inhibition reaches its midpoint. As usually defined, the CC50 is the concentration giving 50% cytotoxicity. Lower therefore signals greater toxicity to the cells. By EC50 is commonly meant the midpoint of the concentration-response curve. For the molecule `COc1cccc(/C=C2\CCc3ccccc3C2=O)c1` [NSC636718, (2E)-2-[(3-methoxyphenyl)methylidene]-3,4-dihydronaphthalen-1-one], in [1] (6 ng/μl rCpPyK, 3 h at room temperature, read-out: Enzyme inhibition IC50), the half-maximal inhibitory concentration (IC50) came out at 117 µM. In data set [2], the “Number of Hydrogen bond acceptors” value is 2, the “Number of Hydrogen bond donors” value is 0 and the Polar surface area was 26.3 Å². Also, in data set [3], the “conformity to Lipinski's and Veber's rules for drug-likeness” value is recorded as “conform”. In data set [4], this molecule had a CC50 at 24 h of 106 µM. In the data set with C. parvum, the “effect on in vitro proliferation and viability of C. parvum” value is “significant inhibitory effect”; the “effect on proliferation of intracellular C. parvum in HCT-8 cells” value is given as “significant (P < 0.05) concentration-dependent inhibitory effect”. In addition, the EC50 in the data set on C. parvum (setting [7]) was 33.8 µM. The concentration for a half-maximal effect (EC50) in the data set on C. parvum (setting [8]) came out at 33.6 µM. For the same molecule, in the data set on C. parvum (HCT-8 CC50 / anti-C. parvum EC50), the “Selectivity index (CC50/EC50)” value was 3.15.

Take `CN(C)c1ccc(/C=C/C(=O)c2cc(Cl)ccc2O)cc1` [NSC11437, (E)-1-(5-chloro-2-hydroxyphenyl)-3-[4-(dimethylamino)phenyl]prop-2-en-1-one]: the solubility result in “Solubility” is reported as “low solubility”. In addition, the IC50 in [1] was determined as 156 µM. Also, in data set [2], the “Number of Hydrogen bond acceptors” value is reported as 3, the “Number of Hydrogen bond donors” value is reported as 1 and the Polar surface area was 40.5 Å². In addition, in data set [3], the “conformity to Lipinski's and Veber's rules for drug-likeness” value is reported as “conform”. In addition, in [4], it took 612 µM to reach half-maximal cytotoxicity (CC50 at 24 h). For the same molecule, in the data set on C. parvum, the “effect on in vitro proliferation and viability of C. parvum” value is given as “significant inhibitory effect”; the “effect on proliferation of intracellular C. parvum in HCT-8 cells” value is recorded as “significant (P < 0.05) concentration-dependent inhibitory effect”. The EC50 with C. parvum (setting [7]) is 23.8 µM. Also, the EC50 with C. parvum (setting [8]) was 27.3 µM.

On to `C=C(OP(=O)(O)O)C(=O)O` [Phosphoenolpyruvate, phosphoenolpyruvate], for which, at rCpPyK, the Km was 320 µM and the Vmax is 6.82 nmol/µg/min.

B1: rCpPyK (Cryptosporidium parvum Iowa II) (protein)
chain: MISNDHLKRLASTSAVMSCTLGKATCLGMDKICSPLADNDVTQRKTQIICTIGPSCNNVESLIGLIDKGMSVARLNFSHGDHESHFKTLQNIREAAKARPHSTVGIMLDTKGPEIRTGMLEGGKPIELKAGQTLKITTDYSMLGNSECISCSYSLLPKSVQIGSTVLIADGSLSTQVLEIGDDFIVCKVLNSVTIGERKNMNLPGCKVHLPIIGDKDRHDIVDFALKYNLDFIALSFVQNGADVQLCRQIISENTQYSNGIPSSIKIISKIENLEGVINFDSICSESDGIMVARGDLGMEIPPEKIFVAQKCMISKCNVAGKPVVTATQMLESMIKSNRPTRAEMTDVANAVLDGSDCVMLSGETANGAFPFDAVNVMSRVCAQAETCIDYPVLYHAIHSSVPKPVAVPEAIACSAVESAHDVNAKLIITITETGNTARLISKYRPSQTIIACTAKPEVARGLKIARGVKTYVLNSIHHSEVVISNALALAKEESLIESGDFAIAVHGVKESCPGSCNLMKIVRCP
For B1, in data set [5], the Km was found to be 40 µM and the Vmax was 4.64 µmol/min/mg. In data set [6], the Km is 1.29 (0.32^a) mM and the Vmax was determined as 12.1 µmol/min/mg.
